Reference: patent US4962109A, “Insecticidally and acaricidally active pyrimidine esters and intermediates therefor” (Imperial Chemical Industries PLC, priority 1985, dated 1990)

Experiments:
Assay type in all cases: in vivo
[1] = test system: Tetranychus urticae (spider mites - adult); assay: Contact test on spider mites - adult (TUa), French bean leaf, mortality; conditions: 72 h, 500 ppm, contact, 3 days, read-out: TUa grading of mortality
Summary of the method: (§1)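 Pests were supported on a host plant or food medium, and either or both were treated with preparations at 500, 250 or 100 ppm by weight. Mortality was assessed one to three days afterwards and banded into three grades, from A (80-100%) down to C (under 50%).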

[2] = test system: Tetranychus urticae (spider mites - ova); assay: Contact test on spider mites - ova (TUe), French bean leaf, mortality; conditions: 144 h, 500 ppm, contact, 6 days, read-out: TUe grading of mortality
Summary of the method: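 Graded read-out: A 80-100%, B 50-79%, C below 50% mortality or knockdown, assessed usually 1-3 days post-treatment. Liquid preparations at 500, 250 or 100 ppm by weight, from acetone solution diluted in water with 0.01% wetting agent, applied to pests and/or their host plant or food medium.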

Myzus persicae (aphids) = assay: Contact test on aphids (MP), Chinese Cabbage leaf, mortality; conditions: 72 h, 500 ppm, contact, 3 days, read-out: MP grading of mortality
Summary of the method: as §1

[3] = test system: Nephotettix cincticeps (green leaf hopper - nymphs); assay: Contact test on green leaf hopper nymphs (NC), Rice plant, mortality; conditions: 48 h, 500 ppm, contact, 2 days, read-out: NC grading of mortality
Summary of the method: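 Product dissolved in acetone, diluted in water with 0.01% wetting agent to 500, 250 or 100 ppm; nymphs and/or host rice plants treated. Mortality or knockdown assessed 1–3 days later, graded A (80-100%), B (50-79%), C (<50%).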

[4] = test system: Musca domestica (houseflies - adults); assay: Knockdown test on houseflies - adults (MD/KD), Cotton wool/sugar; conditions: 500 ppm, 4 hours, read-out: MD/KD grading of knockdown
Summary of the method: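 Adult houseflies exposed to the compound at 500, 250 or 100 ppm in acetone/water with 0.01% wetting agent, on a cotton wool/sugar medium. Knockdown and mortality assessed, graded A (80-100%), B (50-79%) or C (<50%).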

[5] = test system: Musca domestica (houseflies - adults); assay: Contact test on houseflies - adults (MD), Cotton wool/sugar, mortality; conditions: 72 h, 500 ppm, contact, 3 days, read-out: MD grading of mortality
Summary of the method: as §1

[6] = test system: Blattella germanica (cockroach nymphs); assay: Contact test on cockroach nymphs (BG/C), Plastic pot, mortality; conditions: 48 h, 500 ppm, contact, 2 days, read-out: BG/C grading of mortality
Summary of the method: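 Cockroach nymphs and/or their medium were treated with aqueous preparations at 500, 250 or 100 ppm (acetone solution diluted in water with 0.01% Lissapol NX wetting agent). Mortality or knockdown was assessed typically 1–3 days later and graded A (80–100%), B (50–79%) or C (<50%).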

[7] = test system: Heliothis virescens (tobacco budworm - larvae); assay: Residual test on tobacco budworm larvae (HV), Cotton leaf, mortality; conditions: 48 h, read-out: HV grading of mortality
Summary of the method: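 Product in acetone diluted with water containing 0.01% Lissapol NX, at 500, 250 or 100 ppm; pests and/or host medium (here cotton leaf) treated. Mortality scored one to three days later, graded A (80-100%), B (50-79%), C (<50%).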

[8] = test system: Spodoptera exigua (lesser army worm - larvae); assay: Residual test on lesser army worm larvae (SP), Cotton leaf, mortality; conditions: 48 h, 500 ppm, residual, 2 days, read-out: SP grading of mortality
Summary of the method: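 Product dissolved in acetone and diluted in water with 0.01% wetting agent to 500, 250 or 100 ppm; larvae and/or cotton leaf host treated. Mortality or knockdown scored one to three days later and graded A (80-100%), B (50-79%) or C (<50%).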

[9] = test system: Diabrotica balteata (rootworm larvae); assay: Residual test on rootworm larvae (DB), Filter paper/maize seed, mortality; conditions: 48 h, 500 ppm, residual, 2 days, read-out: DB grading of mortality
Summary of the method: as §1

SMILES	mortality at 500 ppm [1]	mortality at 500 ppm [2]	mortality at 500 ppm (Myzus persicae (aphids))	mortality at 500 ppm [3]	pest or weed control at 500 ppm [4]	mortality at 500 ppm [5]	mortality at 500 ppm [6]	mortality at 500 ppm [7]	mortality at 500 ppm [8]	mortality at 500 ppm [9]
C=C(C)C(C(=O)OCc1c(F)c(F)c(COC)c(F)c1F)c1cnc(C(C)(C)C)nc1 (racemic) [Compound 202, 2,3,5,6-tetrafluoro-4-(methoxymethyl)benzyl (RS)-2-[2-(1,1-dimethylethyl)pyrimidin-5-yl]-3-methylbut-3-enoate]	80 to 100%	< 50%	80 to 100%	80 to 100%	80 to 100%	< 50%	< 50%	50 to 79%	80 to 100%	< 50%
CCOC(=O)c1c(F)c(F)c(COC(=O)C(c2cnc(C(C)(C)C)nc2)C(C)(C)C)c(F)c1F (racemic) [Compound 170]	80 to 100%	< 50%	< 50%	50 to 79%	50 to 79%	< 50%	< 50%	< 50%	80 to 100%	< 50%
CC(C)(C)c1ncc(C(C(=O)OC(C#N)c2cccc(Oc3ccccc3)c2)C(C)(C)C)cn1 (racemic) [Compound 2, (RS)-1-cyano-1-(3-phenoxphenyl)methyl (RS)-2-[2-(1,1-dimethylethyl)pyrimidin-5-yl]-3,3-dimethylbutanoate]	80 to 100%	< 50%	80 to 100%	80 to 100%	< 50%	80 to 100%	< 50%	80 to 100%	80 to 100%	80 to 100%
Cc1c(COC(=O)C(c2cnc(C(C)(C)C)nc2)C(C)(C)C)cccc1-c1ccccc1 (racemic) [Compound 3, 2-methyl-3-phenylbenzyl (RS)-2-[2-(1,1-dimethylethyl)pyrimidin-5-yl]-3,3-dimethylbutanoate]	80 to 100%	80 to 100%	< 50%	80 to 100%	< 50%	< 50%	< 50%	50 to 79%	80 to 100%	< 50%
CC1(c2ncc(C(C(=O)OCc3ccc(F)c(Oc4ccccc4)c3)C(C)(C)C)cn2)CC1 (racemic) [Compound 204, 4-fluoro-3-phenoxybenzyl (RS)-2-[2-(1-methylcyclopropyl)pyrimidin-5-yl]-3,3-dimethylbutanoate]	80 to 100%	< 50%	80 to 100%	80 to 100%	80 to 100%	80 to 100%	50 to 79%	80 to 100%	80 to 100%	< 50%
CSCc1c(F)c(F)c(COC(=O)C(c2cnc(C(C)(C)C)nc2)C(C)(C)C)c(F)c1F (racemic) [Compound 169, 4-(methylthiomethyl)-2,3,5,6-tetrafluorobenzyl (RS)-2-[2-(1,1-dimethylethyl)pyrimidin-5-yl]-3,3-dimethylbutanoate]	80 to 100%	80 to 100%	80 to 100%	80 to 100%	80 to 100%	80 to 100%	< 50%	< 50%	80 to 100%	< 50%
COCc1c(F)c(F)c(CSC(=O)C(c2cnc(C(C)(C)C)nc2)C(C)(C)C)c(F)c1F (racemic) [Compound 195, 4-(methoxymethyl)-2,3,5,6-tetrafluorobenzyl (RS)-2-[2-(1,1-dimethylethyl)pyrimidin-5-yl]-3,3-dimethylbutanthioate]	80 to 100%	80 to 100%	80 to 100%	80 to 100%	< 50%	< 50%	< 50%	80 to 100%	80 to 100%	80 to 100%
C#CCc1c(F)c(F)c(COC(=O)C(c2cnc(C(C)(C)C)nc2)C2CC2)c(F)c1F (racemic) [Compound 91, 2,3,5,6-tetrafluoro-4-(prop-2-yn-1-yl)benzyl (RS)-2-[2-(1,1-dimethylethyl)pyrimidin-5-yl]-2-cyclopropylacetate]	80 to 100%	80 to 100%	80 to 100%	80 to 100%	80 to 100%	80 to 100%	80 to 100%	80 to 100%	80 to 100%	80 to 100%
CCOc1c(F)c(COC)c(F)c(F)c1COC(=O)C(c1cnc(C(C)(C)C)nc1)C(C)(C)C (racemic) [Compound 185, 2,3,5-trifluoro-6-ethoxy-4-(methoxymethyl)benzyl (RS)-2-[2-(1,1-dimethylethyl)pyrimidin-5-yl]-3,3-dimethylbutanoate]	80 to 100%	< 50%	80 to 100%	80 to 100%	80 to 100%	50 to 79%	< 50%	80 to 100%	80 to 100%	< 50%
CSc1c(COC(=O)C(c2cnc(C(C)(C)C)nc2)C(C)(C)C)cc(F)c(C)c1F (racemic) [Compound 182, 4-methyl-2-thiomethyl-3,5-difluorobenzyl (RS)-2-[2-(1,1-dimethylethyl)pyrimidin-5-yl]-3,3dimethylbutanoate]	80 to 100%	< 50%	50 to 79%	80 to 100%	< 50%	< 50%	< 50%	< 50%	< 50%	< 50%
CC(C)(C)C(C(=O)OCc1ccc(F)c(Oc2ccccc2)c1)c1cnc(-c2ccccc2Cl)nc1 (racemic) [Compound 209, 4-fluoro-3-phenoxybenzyl (RS)-2-[2-(2-chlorophenyl)pyrimidin-5-yl]-3,3-dimethylbutanoate]	80 to 100%	< 50%	50 to 79%	< 50%	< 50%	< 50%	< 50%	80 to 100%	50 to 79%	< 50%
COCc1c(F)c(F)c(COC(=O)C(c2cnc(C3(C)CC3)nc2)C(C)(C)C)c(F)c1F (racemic) [Compound 139, 2,3,5,6-tetrafluoro-4-(methoxymethyl)benzyl (RS)-2-[2-(1-methylcyclopropyl)pyrimidin-5-yl]-3,3-dimethylbutanoate]	80 to 100%	< 50%	80 to 100%	80 to 100%	80 to 100%	80 to 100%	80 to 100%	80 to 100%	80 to 100%	< 50%
